Laboratory results published in US11272841B2, “Indicator fluids, systems, and methods for assessing movement of substances within, to or from a cerebrospinal fluid, brain or spinal cord compartment of a cranio-spinal cavity of a human” (BRAINWIDESOLUTIONS AS, priority 2017, dated 2022).

Experiment: Percentage change in normalized T1 signal unit ratios in FreeSurfer-segmented brain regions after intrathecal gadobutrol (Table 5, FIG. 14e-h)
Type: in vivo, human
Conditions: for Percentage change in signal unit ratios: mean ± SD
Text: The alignment of longitudinal data is illustrated in FIG. 14c-d. When repeated MRIs are obtained proper alignment is necessary for use of segmentation tools. Otherwise, it is not possible to examine how signals within defined regions of interest change over time. […] The co-registered MRI 1409 show no good co-registration. In FIG. 14d is shown coronal T1 MRIs at Time 1 1410 and Time 2 1411, including co-registered MRIs 1412. In this latter case proper alignment is obtained. Methodology for alignment is established from prior art, as is methodology for segmentation of MRI acquisitions. The inventors have used the FreeSurfer software (version 6.0) (http://surfer.nmr.mgh.harvard.edu/) for segmentation and parcellation, and to measure how an indicator fluid present within CSF (the MRI contrast agent gadobutrol) changed the T1 SU. In this case, the MRI contrast agent was used as CSF tracer. The FreeSurfer software utilizes automated Talairach transformation 1402, and allows for segmentation of a wide range of brain regions, including the subcortical white matter and deep gray matter volumetric structures (including hippocampus, amygdala, caudate, putamen, ventricles).
Using prior art methodology for alignment and segmentation, changes in indication signals over time may be determined. This is further illustrated in Table 5. The results are from 8 individuals who underwent MRI for tentative idiopathic intracranial hypotension due to CSF leakage. A CSF leakage was identified in 3/8 individuals. Otherwise the individuals were healthy. Table 5 presents the percentage change in normalized T1 signals, i.e. indication signal ratios, over time, as compared to T1 weighted MRI without CSF tracer present. […] The MRI signal increase was significant at all main locations (Table 5). The determination of signal unit ratios was described with reference to FIG. 7.
Each image acquisition lasted 6 minutes and 29 seconds.
The inventors determined percentage change in signal units when indicator fluid was present in the CSF compartment, as compared to a point of time without any indicator fluid within the CSF compartment. Four different regions were examined, segmented using FreeSurfer, namely CSF (FIG. 14e), entorhinal cortex (FIG. 14f), hippocampus (FIG. 14g) and Limbic structures (FIG. 14h). The two cohorts of individuals included reference subjects who were close to healthy and a population with a subtype of dementia. For the CSF compartment (FIG. 14e) is shown percentage change in signal unit ratios 1413 versus time 1414, including trend plots for reference subjects 1415 and individuals with dementia 1416. […] Peak for reference subjects occurred after 6-9 hours while after 24 hours for the dementia population.

For `O=C([O-])CN1CCN(CC(=O)[O-])CCN([C@H](CO)[C@H](O)CO)CCN(CC(=O)[O-])CC1.[Gd+3]` (racemic) [gadobutrol], the “Percentage change in signal unit ratios” value (Basal ganglia, 1.5-2 hours) was −3 ± 8%, the “Percentage change in signal unit ratios” value (Basal ganglia, 2-4 hours) was −6 ± 14% and the “Percentage change in signal unit ratios” value (Basal ganglia, 4-6 hours) was 1 ± 25%. For the same molecule, the “Percentage change in signal unit ratios” value (Basal ganglia, 6-9 hours) was −4 ± 14%, the “Percentage change in signal unit ratios” value (Basal ganglia, 24 hours) was 4 ± 18% and the “Time of peak percentage change in signal unit ratios” value (CSF (FIG. 14e), reference subjects and dementia individuals) was 6 to 9 h. The “Percentage change in signal unit ratios” value (CSF [24], 1.5-2 hours after intrathecal gadobutrol, 8 individuals) was 16 ± 20%, the “Percentage change in signal unit ratios” value (CSF [24], 2-4 hours) was 101 ± 116% and the “Percentage change in signal unit ratios” value (CSF [24], 4-6 hours) was 354 ± 309%. For the same molecule, the “Percentage change in signal unit ratios” value (CSF [24], 6-9 hours) was 500 ± 421%, the “Percentage change in signal unit ratios” value (CSF [24], 24 hours) was 157 ± 164% and the “Percentage change in signal unit ratios” value (Cerebellar cortex, 1.5-2 hours) was 6 ± 6%. The “Percentage change in signal unit ratios” value (Cerebellar cortex, 2-4 hours) was 12 ± 27%, the “Percentage change in signal unit ratios” value (Cerebellar cortex, 4-6 hours) was 45 ± 58% and the “Percentage change in signal unit ratios” value (Cerebellar cortex, 6-9 hours) was 67 ± 80%. For the same molecule, the “Percentage change in signal unit ratios” value (Cerebellar cortex, 24 hours) was 53 ± 47%, the “Percentage change in signal unit ratios” value (Cerebellar white matter, 1.5-2 hours) was 1 ± 9% and the “Percentage change in signal unit ratios” value (Cerebellar white matter, 2-4 hours) was −3 ± 14%. For the same molecule, the “Percentage change in signal unit ratios” value (Cerebellar white matter, 4-6 hours) was 3 ± 23%, the “Percentage change in signal unit ratios” value (Cerebellar white matter, 6-9 hours) was 2 ± 19% and the “Percentage change in signal unit ratios” value (Cerebellar white matter, 24 hours) was 15 ± 23%. The “Percentage change in signal unit ratios” value (Cerebral cortex (grey matter), 1.5-2 hours) was −3 ± 7%, the “Percentage change in signal unit ratios” value (Cerebral cortex (grey matter), 2-4 hours) was −1 ± 15% and the “Percentage change in signal unit ratios” value (Cerebral cortex (grey matter), 4-6 hours) was 26 ± 44%. The “Percentage change in signal unit ratios” value (Cerebral cortex (grey matter), 6-9 hours) was 44 ± 50%, the “Percentage change in signal unit ratios” value (Cerebral cortex (grey matter), 24 hours) was 52 ± 54% and the “Percentage change in signal unit ratios” value (Cerebral white matter, 1.5-2 hours) was −3 ± 9%. The “Percentage change in signal unit ratios” value (Cerebral white matter, 2-4 hours) was −1 ± 18%, the “Percentage change in signal unit ratios” value (Cerebral white matter, 4-6 hours) was 26 ± 40% and the “Percentage change in signal unit ratios” value (Cerebral white matter, 6-9 hours) was 34 ± 46%. The “Percentage change in signal unit ratios” value (Cerebral white matter, 24 hours) was 27 ± 33%, the “Percentage change in signal unit ratios” value (Hippocampus, amygdala, accumbens, entorhinal, 1.5-2 hours) was −2 ± 7% and the “Percentage change in signal unit ratios” value (Hippocampus, amygdala, accumbens, entorhinal, 2-4 hours) was −1 ± 15%. For the same molecule, the “Percentage change in signal unit ratios” value (Hippocampus, amygdala, accumbens, entorhinal, 4-6 hours) was 28 ± 38%, the “Percentage change in signal unit ratios” value (Hippocampus, amygdala, accumbens, entorhinal, 6-9 hours) was 43 ± 43% and the “Percentage change in signal unit ratios” value (Hippocampus, amygdala, accumbens, entorhinal, 24 hours) was 42 ± 39%. For the same molecule, the “Percentage change in signal unit ratios” value (Thalamus, 1.5-2 hours) was −2 ± 8%, the “Percentage change in signal unit ratios” value (Thalamus, 2-4 hours) was −4 ± 15% and the “Percentage change in signal unit ratios” value (Thalamus, 4-6 hours) was 5 ± 26%. For the same molecule, the “Percentage change in signal unit ratios” value (Thalamus, 6-9 hours) was 2 ± 18%, the “Percentage change in signal unit ratios” value (Thalamus, 24 hours) was 11 ± 21% and the “Time of peak percentage change in signal unit ratios” value (entorhinal cortex, dementia population) was 24 h. The “Time of peak percentage change in signal unit ratios” value (entorhinal cortex, reference subjects) was 6 to 9 h, the “Time of peak percentage change in signal unit ratios” value (hippocampus, dementia cohort) was 24 h and the “Time of peak percentage change in signal unit ratios” value (hippocampus, reference subjects) was 6 to 9 h. The “Time of peak percentage change in signal unit ratios” value (limbic structures, dementia cohort) was 24 h and the “Time of peak percentage change in signal unit ratios” value (limbic structures, reference subjects) was 6 to 9 h.
